Experimental data as given in publication PMC4550478, “Metronidazole-triazole conjugates: Activity against Clostridium difficile and parasites” (European Journal of Medicinal Chemistry, 2015).
Converted amounts (≈) assume the structure as drawn. Like-named read-outs stand apart in the source and are kept apart here.

Legend:
[1] = tested on: G. lamblia BRIS/87/HEPU/713 (713); parameters: method as in earlier work; details: MtzS, crude Mtz-triazoles (>85% purity), ref 15 (Miyamoto et al.); read-out: EC50 G. lamblia 713, Lit.; cited from earlier work
[2] = tested on: G. lamblia BRIS/83/HEPU/106 (106); parameters: method as in earlier work; details: MtzS, crude Mtz-triazoles (>85% purity), ref 15 (Miyamoto et al.); read-out: EC50 G. lamblia 106, Lit.; cited from earlier work
G. lamblia 713-M3 (713M) = tested on: G. lamblia 713-M3 (713M); parameters: method as in earlier work; details: MtzR, crude Mtz-triazoles (>85% purity), ref 15 (Miyamoto et al.); read-out: EC50 G. lamblia 713M, Lit.; cited from earlier work
[3] = tested on: H. pylori clinical isolate 13/61; experiment: MIC agar dilution, H. pylori 13/61; assay type: cell-based; details: Helicobacter pylori, MtzR clinical isolate
Description: (§1) All compounds were tested for activity against a set of anaerobic C. difficile bacteria (630 ATCC BAA-1382, NAP1/027 M7404, NAP1/027 ATCC BAA-1803, VPI10463 ATCC 43255, CD26A54_S and CD26A54_R) and representative ESKAPE pathogens S. aureus (MRSA ATCC 43300), E. coli (ATCC 25922), K. pneumoniae (ATCC 700603), A. baumannii (ATCC 19606) and P. aeruginosa (ATCC 27853) using a standard broth microdilution assay. Selected compounds were tested for activity against H. pylori strains (26695, and clinical isolates MtzS 13/25, MtzR 98/285 and MtzR 13/61) using agar plate dilution, and for antimicrobial activity against […] Gram-positive bacterial strains: Enterococcus faecalis (VanA clinical isolate), Enterococcus faecium (MDR VanA ATCC 51559), Streptococcus pneumoniae (MDR ATCC 700677), S. aureus (MRSA ATCC 43300, MRSA clinical isolate, MRSA/DRSA clinical isolate, GISA NARSA NRS 1, GISA NARSA NRS 17, VRSA NARSA VRS1, VRSA NARSA VRS4 and VRSA NARSA VRS10) using broth microdilution. C. difficile strains were grown at 37 °C in a COY anaerobic chamber (5% H2, 10% CO2, 85% N2). H. pylori strains were grown at 37 °C under a microaerobic atmosphere (5% O2, 10% CO2). All facultative anaerobic bacteria were grown at 37 °C with normal atmospheric oxygen levels. All experiments were performed in duplicate with metronidazole, vancomycin, linezolid or colistin as positive controls for relevant strains (see Table 1). Positive growth control of bacteria and DMSO as well as a negative control of only media were included for every plate. Full assay details are provided in the supplementary information.
(§2) Helicobacter pylori strains, with a range of resistance levels to metronidazole (256 µg/ml, 64 µg/ml, 24 µg/ml, 2 µg/ml, and 0.04 µg/ml), were selected and obtained from Helicobacter Research Laboratory, University of Western Australia. The resistance strength to metronidazole was recorded according to eTest (bioMérieux). H. pylori strain 26695 was used as the control. H. pylori was maintained on the non-selective Columbia blood agar plates (CBA) (Columbia agar base Oxoid) with 5% horse blood and incubated at 37 °C and 10% CO2 for 48 hrs. […] Each of the H. pylori strains were harvested, OD600 calibrated to 0.3, and spotted in triplicate on CBA pre-mixed with the compound. The lowest concentration of antibiotic showing no growth was read as the MIC. The experiment was performed in duplicate.

H. pylori 26695 = experiment: MIC agar dilution, H. pylori 26695; assay type: cell-based; details: Helicobacter pylori, MtzS, microaerobic
Description: as §1, §2

[4] = tested on: H. pylori clinical isolate 98/285; experiment: MIC agar dilution, H. pylori 98/285; assay type: cell-based; details: Helicobacter pylori, MtzR clinical isolate
Description: as §1, §2

[5] = Cytotoxicity, resazurin, HEK293; assay type: cell-based; details: human
Description: Compounds were tested for cytotoxicity against mammalian HepG2 and HEK293 cell lines, as detailed in the supplementary information.
HEK293 and HepG2 cells were seeded as 3000 and 5000 cells per well in 384-well plates, respectively. Cells were cultured in DMEM with 1% FBS for 24 hours at 37 °C, 5% CO2. Then a dilution series of compounds was added into each well, with the highest concentration of 100 µM. […] After 24 hours incubation with the compounds, 5 µM resazurin were added into each well and incubated at 37 °C for 2 hours. As a negative control, 1% Triton X-100 was added into the culture media to lyse all the cells. The fluorescence intensity was read using Polarstar Omega with excitation/emission 560/590. The data was analysed by GraphPad Prism software. Results are presented as the average percentage of control ± SD using the following equation: Percentage of Growth = (FITEST – FINegative/FIUNTREATED –FINegative)*100.

[6] = MIC broth microdilution, drug resistant Gram-positive panel; assay type: cell-based; details: all strains of the panel; read-out: MIC against panel of drug resistant Gram-positive strains
Description: as §1
MICs were determined by a two-fold serial broth micro dilution according to the recommendation of CLSI standards with an inoculum of 5 × 10^5 CFU/mL^4 The compounds along with standard antibiotics were serially diluted twofold across the wells of 96-well non-binding surface plates (NBS, Corning). Standards ranged from 64 to 0.03 μg/mL, and the compounds from 128 to 0.06 μg/mL with final volumes of 50 μL per well. Gram-positive and Gram-negative bacteria were cultured in Mueller Hinton broth (MHB) (Bacto laboratories, Cat. no. 211443) at 37 °C overnight. A sample of each culture was then diluted 40-fold in fresh MHB broth and incubated at 37 °C for 2-3 h. The resultant mid-log phase cultures were diluted to the final concentration of 5 × 10^5 CFU/mL, then 50 μL was added to each well of the compound containing 96-well plates. All the plates were covered and incubated at 37 °C for 24 h.

SMILES	EC50 [1] [nM]	EC50 [2] [nM]	EC50 (G. lamblia 713-M3 (713M)) [nM]	MIC [3] [µg/mL]	MIC (H. pylori 26695) [µg/mL]	MIC [4] [µg/mL]	CC50 at 24 h [5] [nM]	MIC [6] [µg/mL]	CC50 at 24 h ([5]; no cytotoxicity up to 100 μM, 24 hours incubation, read-out: CC50 HEK293) [nM]
Cc1ccc(-c2cn(CCn3c([N+](=O)[O-])cnc3C)nn2)cc1 [Compound 4e, 1-(2-(2-methyl-5-nitro-1H-imidazol-1-yl)ethyl)-4-(p-tolyl)-1H-1,2,3-triazole]	530	2100	8100	–	–	–	–	–	–
Cc1ncc([N+](=O)[O-])n1CCn1cc(Cn2cccn2)nn1 [Compound 4g, 1-(2-(2-methyl-5-nitro-1H-imidazol-1-yl)ethyl)-4-((1H-pyrazol-1-yl)methyl)-1H-1,2,3-triazole]	–	–	–	16 to 32 (≈ 52.9 to 106 µM)	2 to 4 (≈ 6.62 to 13.2 µM)	16 to 32 (≈ 52.9 to 106 µM)	–	–	–
Cc1ncc([N+](=O)[O-])n1CCn1cc(Cc2ccccc2)nn1 [Compound 4k, 1-(2-(2-methyl-5-nitro-1H-imidazol-1-yl)ethyl)-4-benzyl-1H-1,2,3-triazole]	390	710	5200	–	–	–	–	–	–
Cc1ncc([N+](=O)[O-])n1CCn1cc(-c2ccccn2)nn1 [Compound 4h, 1-(2-(2-methyl-5-nitro-1H-imidazol-1-yl)ethyl)-4-(2-pyridinyl)-1H-1,2,3-triazole.xTFA]	350	560	14000	16	2	32	–	–	–
Cc1ncc([N+](=O)[O-])n1CCn1cc(-c2ccsc2)nn1 [Compound 4n, 1-(2-(2-methyl-5-nitro-1H-imidazol-1-yl)ethyl)-4-(thiophen-3-yl)-1H-1,2,3-triazole]	230	340	6900	–	–	–	–	–	–
Cc1ncc([N+](=O)[O-])n1CCn1cc(-c2ccc(Cl)c(Cl)c2)nn1 [Compound 4d, 1-(2-(2-methyl-5-nitro-1H-imidazol-1-yl)ethyl)-4-(3,4-dichlorophenyl)-1H-1,2,3-triazole]	310	1400	570	–	–	–	–	–	–
Cc1ncc([N+](=O)[O-])n1CCO [Compound 1, metronidazole]	2000	3600	50000	32 to 64 (≈ 187 to 374 µM)	8 (≈ 46.7 µM)	64 (≈ 374 µM)	> 100000	> 64	–
COC(=O)c1cn(CCn2c([N+](=O)[O-])cnc2C)nn1 [Compound 4f, 1-(2-(2-methyl-5-nitro-1H-imidazol-1-yl)ethyl)-4-(methoxycarbonyl)-1H-1,2,3-triazole]	–	–	–	–	32 to 64 (≈ 114 to 228 µM)	–	–	–	–
Cc1ncc([N+](=O)[O-])n1CCN=[N+]=[N-] [Compound 3, 1-(2-azidoethyl)-2-methyl-5-nitro-1H-imidazole]	–	–	–	–	–	–	–	–	> 100000
Cc1ncc([N+](=O)[O-])n1CCn1cc(-c2ccccc2)nn1 [Compound 4a, 1-(2-(2-methyl-5-nitro-1H-imidazol-1-yl)ethyl)-4-phenyl-1H-1,2,3-triazole]	160	260	5300	–	–	–	–	> 64	–
Cc1ncc([N+](=O)[O-])n1CCn1cc(CO)nn1 [Compound 4q, 1-(2-(2-methyl-5-nitro-1H-imidazol-1-yl)ethyl)-4-(hydroxymethyl)-1H-1,2,3-triazole]	–	–	–	–	–	–	–	> 64	–
Cc1ncc([N+](=O)[O-])n1CCn1cc(C(=O)O)nn1 [Compound 4s, 1-(2-(2-methyl-5-nitro-1H-imidazol-1-yl)ethyl)-4-(carboxy)-1H-1,2,3-triazole]	–	–	–	> 64	> 64	> 64	–	–	–
Cc1ncc([N+](=O)[O-])n1CCn1cc(CN(C)Cc2ccccc2)nn1 [Compound 4m, 1-(2-(2-methyl-5-nitro-1H-imidazol-1-yl)ethyl)-4-(N-benzyl, N-methylaminomethyl)-1H-1,2,3-triazole]	910	300	9300	16 (≈ 45 µM)	4 (≈ 11.3 µM)	–	–	–	–
